The values that follow are results of earlier work, collected in patent US7329495B2 (Board of Regents, the University of Texas System, priority 2004, dated 2008).

For the series, the target named is KIT protein (c-KIT K642E) (Homo sapiens, UniProt P10721, K642E). The following applies: human GIST cell line, homozygous exon 13 c-KIT K642E.
Chain of KIT protein (c-KIT K642E) (P10721 26-976 K642E): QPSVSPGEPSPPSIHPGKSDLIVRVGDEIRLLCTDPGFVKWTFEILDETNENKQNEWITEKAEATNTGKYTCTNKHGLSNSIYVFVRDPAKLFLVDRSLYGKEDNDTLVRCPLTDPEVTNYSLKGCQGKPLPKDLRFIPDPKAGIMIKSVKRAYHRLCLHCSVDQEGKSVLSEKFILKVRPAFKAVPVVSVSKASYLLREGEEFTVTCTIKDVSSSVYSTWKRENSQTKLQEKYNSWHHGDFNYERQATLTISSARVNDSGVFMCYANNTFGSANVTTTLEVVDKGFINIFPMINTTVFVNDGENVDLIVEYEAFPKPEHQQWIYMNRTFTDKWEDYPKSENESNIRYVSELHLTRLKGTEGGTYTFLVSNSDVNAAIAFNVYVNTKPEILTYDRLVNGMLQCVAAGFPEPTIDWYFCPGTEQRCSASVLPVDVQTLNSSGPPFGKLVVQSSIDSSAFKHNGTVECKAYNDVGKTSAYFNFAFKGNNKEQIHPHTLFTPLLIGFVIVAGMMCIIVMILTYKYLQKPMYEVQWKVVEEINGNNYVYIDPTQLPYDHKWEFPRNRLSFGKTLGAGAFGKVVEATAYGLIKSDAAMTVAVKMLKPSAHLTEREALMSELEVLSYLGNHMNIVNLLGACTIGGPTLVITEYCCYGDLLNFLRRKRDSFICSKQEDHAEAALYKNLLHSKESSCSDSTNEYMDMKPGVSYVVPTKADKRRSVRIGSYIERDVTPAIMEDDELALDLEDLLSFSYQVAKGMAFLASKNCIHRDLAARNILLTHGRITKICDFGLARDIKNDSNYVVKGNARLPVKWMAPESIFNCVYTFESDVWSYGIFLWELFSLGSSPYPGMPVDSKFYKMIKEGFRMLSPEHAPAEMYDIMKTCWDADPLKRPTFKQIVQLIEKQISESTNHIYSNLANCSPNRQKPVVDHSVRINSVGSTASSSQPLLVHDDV

As to `Cc1ccc(NC(=O)c2ccc(CN3CCN(C)CC3)cc2)cc1Nc1nccc(-c2cccnc2)n1` [imatinib], the “constitutive KIT tyrosine phosphorylation after introducing STI571 to the cells” value is “abolished”.
